# pIC50: −log10 of the molar value.
# Assays:
# human SGLT1 = target: T1, human SGLT1 (Homo sapiens, UniProt P13866); assay: Inhibition test of sodium-dependent sugar uptake in CHO-k1 cells stably expressing human SGLT1; type: cell-based; settings: for pIC50: CHO-k1 cells expressing human SGLT1, [14C]methyl α-D-glucopyranoside uptake, 37° C., 30 minutes; for SGLT1 % inhibition at 100 nM: sugar uptake inhibition rate at 100 nM test compound vs control group
# T1 construct: expressed in transfected cells; host or cells: CHO-k1
# T1 sequence (P13866 1-664): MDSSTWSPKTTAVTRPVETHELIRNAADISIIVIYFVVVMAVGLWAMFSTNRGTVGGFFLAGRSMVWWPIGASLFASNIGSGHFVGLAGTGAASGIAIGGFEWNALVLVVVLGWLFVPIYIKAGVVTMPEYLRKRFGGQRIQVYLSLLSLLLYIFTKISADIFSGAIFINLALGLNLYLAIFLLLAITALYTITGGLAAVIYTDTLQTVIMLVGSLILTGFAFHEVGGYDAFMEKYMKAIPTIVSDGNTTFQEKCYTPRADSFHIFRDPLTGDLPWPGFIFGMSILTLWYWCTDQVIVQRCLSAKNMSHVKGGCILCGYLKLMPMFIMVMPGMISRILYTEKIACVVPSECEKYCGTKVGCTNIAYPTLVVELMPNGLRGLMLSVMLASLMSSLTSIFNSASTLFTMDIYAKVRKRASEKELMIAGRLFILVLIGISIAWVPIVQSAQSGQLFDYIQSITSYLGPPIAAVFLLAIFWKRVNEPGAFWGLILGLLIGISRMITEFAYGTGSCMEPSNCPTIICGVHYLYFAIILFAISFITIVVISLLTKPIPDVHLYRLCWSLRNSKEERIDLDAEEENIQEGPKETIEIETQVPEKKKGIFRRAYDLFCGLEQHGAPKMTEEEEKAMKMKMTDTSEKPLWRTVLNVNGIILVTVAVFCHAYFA
# Method: (§1) An SGLT1 sequence (NM_000343) was reverse-transcripted from human small intestinal mRNA, then amplified, and then introduced into pCMV-tag5A from Stratagene Corporation. An SGLT2 sequence (NM_003041) was prepared from human nephric mRNA as with the above method, and then introduced into pcDNA3.1+hygro from Invitrogen Corporation. Each cloned sequence was confirmed to be identical with the reported sequence.
# (§2) The human SGLT1 and human SGLT2 expression vectors were transfected into CHO-k1 cells by using Lipofectamine 2000 from Invitrogen Corporation. The SGLT expression cells were incubated in the presence of Geneticin (SGLT1) or Hygromycin B (SGLT2) at a 500 μg/mL concentration to select resistant strains, and specific activity of sugar uptake was obtained as an indicator by the following system.
# (§3) Cells stably expressing human SGLT1 and human SGLT2 were used for the inhibition test of sodium-dependent glucose uptake.
# (§4) The cells were incubated in a pretreatment buffer A (200 μL for SGLT1, and 2 mL for SGLT2) for 20 minutes. The pretreatment buffer was removed and an uptake buffer B (75 μL for SGLT1, and 200 μL for SGLT2) containing a test compound was added to conduct an uptake reaction at 37° C. for 30 minutes (SGLT1) or an hour (SGLT2). After the reaction, the cells were washed with a washing buffer C twice (200 μL for SGLT1, and 2 mL for SGLT2), and then dissolved in a 0.2 M solution of NaOH (75 μL for SGLT1, and 400 μL for SGLT2). After a liquid scintilater was added thereto and mixed sufficiently, radioactivity was measured with microBETA (SGLT1) or a liquid scintillation counter from Beckman Coulter, Inc (SGLT2). As a control group, an uptake buffer containing no test compound was prepared. In addition, as the basic uptake buffer, an uptake buffer B containing choline chloride instead of NaCl was prepared. • A pretreatment buffer A: 140 mM choline chloride, 2 mM KCl, 1 mM CaCl2, 1 mM MgCl2, 10 mM HEPES/5 mM Tris, pH 7.4. • An uptake buffer B: 1 mM of methyl α-D-glucopyranoside containing [^14C]methyl α-D-glucopyranoside, 140 mM NaCl, 2 mM KCl, 1 mM CaCl2, 1 mM MgCl2, 10 mM HEPES/5 mM Tris, pH 7.4. • A washing buffer C: 10 mM methyl α-D-glucopyranoside, 140 mM choline chloride, 2 mM KCl, 1 mM CaCl2, 1 mM MgCl2, 10 mM HEPES/5 mM Tris, pH 7.4.
# (§5) In order to obtain IC50 values, test compounds having adequate 6 concentrations were used and the test compound concentrations (IC50 values) at which sugar uptake is inhibited by 50% in comparison with the amount of sugar uptake (100%) of the control group were calculated.
# (§6) In addition, the sugar uptake inhibition rates at 100 nM concentration of the test compound in comparison with the control group are shown in Table 7.
# human SGLT2 = target: T2, human SGLT2 (Homo sapiens, UniProt P31639); assay: Inhibition test of sodium-dependent sugar uptake in CHO-k1 cells stably expressing human SGLT2; type: cell-based; settings: for pIC50: CHO-k1 cells expressing human SGLT2, [14C]methyl α-D-glucopyranoside uptake, 37° C., an hour; for SGLT2 % inhibition at 100 nM: sugar uptake inhibition rate at 100 nM test compound vs control group
# T2 construct: expressed in transfected cells; host or cells: CHO-k1
# T2 sequence (P31639 1-672): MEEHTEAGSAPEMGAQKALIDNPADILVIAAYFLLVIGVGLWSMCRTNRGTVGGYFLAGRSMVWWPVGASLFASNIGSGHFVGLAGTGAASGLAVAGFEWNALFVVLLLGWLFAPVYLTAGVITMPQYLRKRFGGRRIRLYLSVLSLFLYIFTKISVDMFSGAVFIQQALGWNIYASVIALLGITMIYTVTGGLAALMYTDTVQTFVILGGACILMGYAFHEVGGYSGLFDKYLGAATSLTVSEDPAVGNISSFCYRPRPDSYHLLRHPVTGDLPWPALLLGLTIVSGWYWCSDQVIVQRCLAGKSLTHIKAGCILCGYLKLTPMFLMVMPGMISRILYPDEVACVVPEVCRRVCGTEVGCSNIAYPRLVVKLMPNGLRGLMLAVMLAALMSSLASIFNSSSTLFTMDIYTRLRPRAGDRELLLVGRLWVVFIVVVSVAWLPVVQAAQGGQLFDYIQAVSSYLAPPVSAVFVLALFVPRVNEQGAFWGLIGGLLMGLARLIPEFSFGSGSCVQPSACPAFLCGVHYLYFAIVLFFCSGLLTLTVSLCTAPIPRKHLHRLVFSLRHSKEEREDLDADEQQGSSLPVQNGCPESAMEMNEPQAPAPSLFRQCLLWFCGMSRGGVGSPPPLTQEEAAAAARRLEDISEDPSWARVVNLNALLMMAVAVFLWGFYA
# Method: as §1, §2, §3, §4, §5, §6
pIC50 (human SGLT1),pIC50 (human SGLT2),SGLT1 % inhibition at 100 nM (human SGLT1) [%],SGLT2 % inhibition at 100 nM (human SGLT2) [%],SMILES
6.83,7.41,–,–,COCCNC(=O)NCCc1ccc(Cc2cc([C@@H]3O[C@H](CO)[C@@H](O)[C@H](O)[C@H]3O)c(O)cc2C)cc1 [Compound 31]
6.61,7.36,–,–,COC(=O)CCNC(=O)NCCc1ccc(Cc2cc([C@@H]3O[C@H](CO)[C@@H](O)[C@H](O)[C@H]3O)c(O)cc2C)cc1 [Compound 32]
7.92,7.96,–,–,Cc1cc(O)c([C@@H]2O[C@H](CO)[C@@H](O)[C@H](O)[C@H]2O)cc1Cc1ccc(CCNC(=O)NC2CCN(Cc3ccccc3)CC2)cc1 [Compound 33]
7.08,7.47,–,–,Cc1cc(O)c([C@@H]2O[C@H](CO)[C@@H](O)[C@H](O)[C@H]2O)cc1Cc1ccc(CCNC(=O)NC2CCCc3ccccc32)cc1 (stereo partly drawn) [Compound 35]
7.03,7.47,–,–,Cc1cc(O)c([C@@H]2O[C@H](CO)[C@@H](O)[C@H](O)[C@H]2O)cc1Cc1ccc(CCNC(=O)N2CCC(C)CC2)cc1 [Compound 36]
–,–,89,83,CCC(CO)(CO)NC(=O)NCCc1ccc(Cc2cc([C@@H]3O[C@H](CO)[C@@H](O)[C@H](O)[C@H]3O)c(O)cc2C)cc1 [Compound 38]
–,–,80,83,Cc1cc(O)c([C@@H]2O[C@H](CO)[C@@H](O)[C@H](O)[C@H]2O)cc1Cc1ccc(CCNC(=O)NC(C)(C)C)cc1 [Compound 39]
–,–,79,89,Cc1cc(O)c([C@@H]2O[C@H](CO)[C@@H](O)[C@H](O)[C@H]2O)cc1Cc1ccc(CCNC(=O)N[C@@H](Cc2ccccc2)C(N)=O)cc1 [Compound 40]
–,–,78,87,Cc1cc(O)c([C@@H]2O[C@H](CO)[C@@H](O)[C@H](O)[C@H]2O)cc1Cc1ccc(CCNC(=O)NCc2ccco2)cc1 [Compound 42]
–,–,77,86,Cc1cc(O)c([C@@H]2O[C@H](CO)[C@@H](O)[C@H](O)[C@H]2O)cc1Cc1ccc(CCNC(=O)NC(CO)C(C)C)cc1 (stereo partly drawn) [Compound 43]
–,–,74,91,Cc1cc(O)c(C2OC(CO)C(O)C(O)C2O)cc1Cc1ccc(CCNC(=O)NC(CO)CC(C)C)cc1 (stereo not drawn) [Compound 46]
–,–,73,89,CSCC[C@@H](CO)NC(=O)NCCc1ccc(Cc2cc([C@@H]3O[C@H](CO)[C@@H](O)[C@H](O)[C@H]3O)c(O)cc2C)cc1 [Compound 47]
–,–,73,87,Cc1cc(O)c([C@@H]2O[C@H](CO)[C@@H](O)[C@H](O)[C@H]2O)cc1Cc1ccc(CCNC(=O)N[C@H](CO)Cc2ccccc2)cc1 [Compound 48]
–,–,71,77,CCC(CO)NC(=O)NCCc1ccc(Cc2cc([C@@H]3O[C@H](CO)[C@@H](O)[C@H](O)[C@H]3O)c(O)cc2C)cc1 (stereo partly drawn) [Compound 50]
–,–,71,84,COc1cccc(CCNC(=O)NCCc2ccc(Cc3cc([C@@H]4O[C@H](CO)[C@@H](O)[C@H](O)[C@H]4O)c(O)cc3C)cc2)c1 [Compound 51]
–,–,71,84,Cc1cc(O)c([C@@H]2O[C@H](CO)[C@@H](O)[C@H](O)[C@H]2O)cc1Cc1ccc(CCNC(=O)NCCc2ccc(F)cc2)cc1 [Compound 52]
–,–,70,74,Cc1cc(O)c([C@@H]2O[C@H](CO)[C@@H](O)[C@H](O)[C@H]2O)cc1Cc1ccc(CCNC(=O)NCC(c2ccccc2)c2ccccc2)cc1 [Compound 53]
–,–,79,73,COC(=O)C(NC(=O)NCCc1ccc(Cc2cc(C3OC(CO)C(O)C(O)C3O)c(O)cc2C)cc1)C(C)(C)C (stereo not drawn) [Compound 54]
–,–,69,69,COc1ccc(CCNC(=O)NCCc2ccc(Cc3cc([C@@H]4O[C@H](CO)[C@@H](O)[C@H](O)[C@H]4O)c(O)cc3C)cc2)cc1OC [Compound 55]
–,–,68,77,CCCNC(=O)NCCc1ccc(Cc2cc([C@@H]3O[C@H](CO)[C@@H](O)[C@H](O)[C@H]3O)c(O)cc2C)cc1 [Compound 56]
–,–,68,51,COc1ccc(CCN(C)C(=O)NCCc2ccc(Cc3cc([C@@H]4O[C@H](CO)[C@@H](O)[C@H](O)[C@H]4O)c(O)cc3C)cc2)cc1OC [Compound 57]
–,–,67,86,Cc1cc(O)c([C@@H]2O[C@H](CO)[C@@H](O)[C@H](O)[C@H]2O)cc1Cc1ccc(CCNC(=O)N(CC(C)C)CC(C)C)cc1 [Compound 59]
–,–,66,91,Cc1cc(O)c([C@@H]2O[C@H](CO)[C@@H](O)[C@H](O)[C@H]2O)cc1Cc1ccc(CCNC(=O)NC(Cc2ccccc2)C(N)=O)cc1 (stereo partly drawn) [Compound 60]
–,–,65,95,Cc1cc(O)c([C@@H]2O[C@H](CO)[C@@H](O)[C@H](O)[C@H]2O)cc1Cc1ccc(CCNC(=O)NCc2cc3ccccc3s2)cc1 [Compound 61]
–,–,65,79,Cc1cc(O)c([C@@H]2O[C@H](CO)[C@@H](O)[C@H](O)[C@H]2O)cc1Cc1ccc(CCNC(=O)NCCCCc2ccccc2)cc1 [Compound 62]
–,–,63,81,Cc1cc(O)c([C@@H]2O[C@H](CO)[C@@H](O)[C@H](O)[C@H]2O)cc1Cc1ccc(CCNC(=O)NCCc2ccc(O)cc2)cc1 [Compound 63]

SMILES,pIC50 (human SGLT1),pIC50 (human SGLT2),SGLT1 % inhibition at 100 nM (human SGLT1) [%],SGLT2 % inhibition at 100 nM (human SGLT2) [%]
Cc1cc(O)c([C@@H]2O[C@H](CO)[C@@H](O)[C@H](O)[C@H]2O)cc1Cc1ccc(CCNC(=O)NC2CN3CCC2CC3)cc1 (stereo partly drawn) [Compound 34],7.31,8.00,–,–

# Reference: patent US7973012B2, “C-phenyl glycitol compound” (Taisho Pharmaceutical Co., Ltd, priority 2006, dated 2011)
